# What was measured:
# [1] = molecular target: PTRGER4 (EP4) (Homo sapiens (Human), UniProt P35408); assay: hEP4 b-arrestin assay (PathHunter HEK 293 PTGER4 b-arrestin cells); assay type: cell-based
# Outline: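 Antagonist mode: compound is given 15 min at 37 °C, then 20 nM (final) PGE2 for 120 min, in HEK293 cells stably expressing EP4 fused to ProLink and β-arrestin 2 fused to EA. Recruitment read as β-gal luminescence after 1 h reagent at room temperature, as percent of DMSO control.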
# [2] = molecular target: PTGER2 (EP2) (Homo sapiens (Human), UniProt P43116); assay: hEP2 b-arrestin assay (PathHunter HEK 293 PTGER2 b-arrestin cells); assay type: cell-based
# Outline: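 Readout is β-galactosidase complementation luminescence, expressed as percent of DMSO control (duplicates). PathHunter HEK293 EP2/β-arrestin 2 cells, grown 24 h, received compound for 15 min at 37 °C before a 120 min challenge with PGE2 at 5 μM final, followed by 1 h detection at room temperature.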
# [3] = hEP4 b-arrestin assay (values without asterisk)
# [4] = hEP2 b-arrestin assay (values without asterisk)
# [5] = antagonistic activity on hEP4, mean where measured multiple times
# [6] = antagonistic activity on hEP2, mean where measured multiple times
# Chain of PTRGER4 (EP4) (P35408 whole entry, looked up, the tested form may be a part): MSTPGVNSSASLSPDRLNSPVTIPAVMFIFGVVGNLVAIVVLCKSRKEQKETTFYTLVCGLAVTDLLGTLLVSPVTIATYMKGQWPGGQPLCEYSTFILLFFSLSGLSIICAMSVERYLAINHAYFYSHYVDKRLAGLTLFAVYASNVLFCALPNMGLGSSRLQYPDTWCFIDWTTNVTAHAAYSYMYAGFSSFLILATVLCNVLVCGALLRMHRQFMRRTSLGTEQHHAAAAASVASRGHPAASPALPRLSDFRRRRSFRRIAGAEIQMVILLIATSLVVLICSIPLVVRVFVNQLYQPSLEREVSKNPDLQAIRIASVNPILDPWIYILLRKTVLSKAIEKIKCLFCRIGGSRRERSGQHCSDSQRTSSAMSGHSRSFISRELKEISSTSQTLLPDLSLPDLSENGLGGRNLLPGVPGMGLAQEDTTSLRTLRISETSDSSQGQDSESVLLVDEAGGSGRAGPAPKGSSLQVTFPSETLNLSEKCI
# Chain of PTGER2 (EP2) (P43116 whole entry): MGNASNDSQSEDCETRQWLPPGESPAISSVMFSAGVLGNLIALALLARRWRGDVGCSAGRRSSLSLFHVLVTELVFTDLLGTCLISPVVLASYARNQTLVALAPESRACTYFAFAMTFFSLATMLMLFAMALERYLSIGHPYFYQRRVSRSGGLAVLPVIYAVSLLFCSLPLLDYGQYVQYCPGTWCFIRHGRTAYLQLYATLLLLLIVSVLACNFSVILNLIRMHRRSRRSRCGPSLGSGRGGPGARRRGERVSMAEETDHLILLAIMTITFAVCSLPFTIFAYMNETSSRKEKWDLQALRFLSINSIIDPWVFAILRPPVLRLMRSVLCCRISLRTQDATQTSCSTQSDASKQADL
SMILES,"IC50 [1, 3] [nM]","IC50 [2, 4] [nM]","IC50 [1, 5] [nM]","IC50 [2, 6] [nM]"
"COc1cc(F)cc2c1cc(C)n2CCNc1cc(-c2cc(OCC(F)(F)F)c(C(=O)O)s2)ncn1 [Example 838, 5-{6-[2-(6-Fluoro-4-methoxy-2-methyl-indol-1-yl)-ethylamino]-pyrimidin-4-yl}-3-(2,2,2-trifluoro-ethoxy)-thiophene-2-carboxylic acid]",41,4,,
"COc1ccc(F)c2c1cc(C#N)n2CCNc1cc(-c2ccc3nccn3c2)ncn1 [Example 995, 7-Fluoro-1-[2-(6-imidazo[1,2-a]pyridin-6-yl-pyrimidin-4-ylamino)-ethyl]-4-methoxy-1H-indole-2-carbonitrile]",52,13,,
"COc1ccc(F)c2c1cc(C#N)n2CCNc1cc(-c2ccc3c(=O)[nH]n(C)c3c2)ncn1 [Example 921, 7-Fluoro-4-methoxy-1-{2-[6-(1-methyl-3-oxo-2,3-dihydro-1H-indazol-6-yl)-pyrimidin-4-ylamino]-ethyl}-1H-indole-2-carbonitrile]",9,6,,
"COCCOc1ccc(-c2cc(NCCn3c(C#N)cc4c(OC)ccc(F)c43)ncn2)cc1 [Example 963, 7-Fluoro-4-methoxy-1-(2-{6-[4-(2-methoxy-ethoxy)-phenyl]-pyrimidin-4-ylamino}-ethyl)-1H-indole-2-carbonitrile]",126,194,,
"CCOc1cc(-c2cc(NCCn3c(C#N)cc4c(Cl)cc(Cl)cc43)ncn2)sc1C(=O)O [Example 889, 5-{6-[2-(4,6-Dichloro-2-cyano-indol-1-yl)-ethylamino]-pyrimidin-4-yl}-3-ethoxy-thiophene-2-carboxylic acid]",35,1,,
"Cc1cc(F)cc2c1cc(C)n2CCNc1cc(-c2ccc(-c3cc(O)no3)cc2)ncn1 [compound 200, 5-(4-{6-[2-(6-Fluoro-2,4-dimethyl-indol-1-yl)-ethylamino]-pyrimidin-4-yl}-phenyl)-isoxazol-3-ol]",,,111,37
CNc1cc(-c2cc(NCCn3c(C)cc4c(OC)cccc43)ncn2)ccc1C(=O)O [compound 213],,,204,3

# More lines, now with the values ahead:
"IC50 [1, 3] [nM]","IC50 [2, 4] [nM]","IC50 [1, 5] [nM]","IC50 [2, 6] [nM]",SMILES
,,731,369,CCOc1cc(-c2cc(NCCn3c(C)cc4c(OC)ccc(F)c43)ncn2)ccc1CNC [compound 358]
,,174,1,"CNc1cc(-c2cc(NCCn3c(C)cc4c(F)ccc(F)c43)ncn2)ccc1C(=O)O [compound 134, 4-{6-[2-(4,7-Difluoro-2-methyl-indol-1-yl)-ethylamino]-pyrimidin-4-yl}-2-methylamino-benzoic acid]"
37,5,,,"CNc1cc(-c2cc(NCCn3c(C)cc4c(C)c(F)cc(F)c43)ncn2)ccc1C(=O)O [Example 1012, 4-{6-[2-(5,7-Difluoro-2,4-dimethyl-indol-1-yl)-ethylamino]-pyrimidin-4-yl}-2-methylamino-benzoic acid]"
16,2,,,"CCOc1cc(-c2cc(NCCn3c(C)cc4c(OC)cc(Cl)cc43)ncn2)sc1C(=O)O [Example 871, 5-{6-[2-(6-Chloro-4-methoxy-2-methyl-indol-1-yl)-ethylamino]-pyrimidin-4-yl}-3-ethoxy-thiophene-2-carboxylic acid]"
,,102,28,CCc1cc(-c2cc(NCCn3c(C)cc4c(OC)ccc(F)c43)ncn2)ccc1C(=O)O [compound 290]
,,968,159,COc1ccc(F)c2c1cc(C)n2CCNc1cc(-c2ccc3c(c2)CCO3)ncn1 [compound 325]
,,621,5,"CCCc1cc(-c2cc(NCCn3c(C)cc4c(F)ccc(Cl)c43)ncn2)cc(Cl)c1C(=O)O [compound 342, 2-Chloro-4-{6-[2-(7-chloro-4-fluoro-2-methyl-indol-1-yl)-ethylamino]-pyrimidin-4-yl}-6-propyl-benzoic acid]"

# Reference: patent US12011444B2, “N-substituted indole derivatives as PGE2 receptor modulators” (Idorsia Pharmaceuticals Ltd, priority 2015, dated 2024)
